Experimental findings from patent US20190071416A1, “COMPOUNDS FOR TREATMENT OF CANCER AND EPIGENETICS” (Agency For Science, Technology and Research, priority 2015, published 2019) are described below.

Structures are written as SMILES.

In the assay the target is T1, SMYD3 (Homo sapiens, UniProt Q9H7B4).
T1 sequence (Q9H7B4 1-428): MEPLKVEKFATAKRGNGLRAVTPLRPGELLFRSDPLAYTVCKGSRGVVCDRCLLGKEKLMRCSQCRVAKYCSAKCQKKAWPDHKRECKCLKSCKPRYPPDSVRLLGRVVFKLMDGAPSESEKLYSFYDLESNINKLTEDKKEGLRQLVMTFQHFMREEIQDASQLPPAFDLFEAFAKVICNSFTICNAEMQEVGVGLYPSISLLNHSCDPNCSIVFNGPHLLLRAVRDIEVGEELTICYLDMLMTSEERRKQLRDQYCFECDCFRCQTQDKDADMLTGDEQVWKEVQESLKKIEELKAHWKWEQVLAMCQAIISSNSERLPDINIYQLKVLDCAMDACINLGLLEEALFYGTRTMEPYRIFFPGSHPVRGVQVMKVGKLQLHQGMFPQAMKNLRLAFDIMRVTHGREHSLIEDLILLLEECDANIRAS
The experiment in a line: SMYD3 biochemical assay (MTase-Glo, MAP3K2 peptide substrate). Conditions: Table 3; MTase assay, MAP3K2 peptide substrate; read-out: IC50. The essentials:
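Methylation of MAP3K2 peptide (10 µM final) with SAM (1.0 µM final) by SMYD3, 30 min at room temperature. SAH formed was enzymatically converted to ATP and detected as luminescence with MTase-Glo reagents; IC50 by non-linear regression.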
Consider `CCCOC(=O)N1CCN(C(=O)c2ccc3c(Cl)cc(-c4ccc(N(C)C)cc4)nc3c2)CC1` [B055, Propyl 4-(4-chloro-2-(4-(dimethylamino)phenyl)quinoline-7-carbonyl)piperazine-1-carboxylate], for which the IC50 (commonly the point on the concentration scale where inhibition reaches its midpoint) came to 350 nM.
Regarding `CCCOC(=O)N1CCN(C(=O)c2ccc3c(Cl)c(C)c(-c4cccc(N)c4)nc3c2)C[C@H]1C` [B056, Propyl (R)-4-(2-(3-aminophenyl)-4-chloro-3-methylquinoline-7-carbonyl)-2-methylpiperazine-1-carboxylate], the half-maximal inhibitory concentration (IC50) was determined as 120 nM.
The result for `C#Cc1ccc(-c2cc(Cl)c3ccc(C(=O)N4CCN(C(=O)OCCC)CC4)cc3n2)cc1` [B057, Propyl 4-(4-chloro-2-(4-ethynylphenyl)quinoline-7-carbonyl)piperazine-1-carboxylate] reads 930 nM.
The figure for `CCCOC(=O)N1CCN(C(=O)c2ccc3c(Cl)cc(-c4cccc(N(C)C)c4)nc3c2)CC1` [B058, Propyl 4-(4-chloro-2-(3-(dimethylamino)phenyl)quinoline-7-carbonyl)piperazine-1-carboxylate] is 1470 nM.
The result for `C#Cc1ccc(-c2cc(Cl)c3ccc(C(=O)N4CCN(C(=O)OCCC)[C@H](C)C4)cc3n2)cc1` [B059, Propyl (R)-4-(4-chloro-2-(4-ethynylphenyl)quinoline-7-carbonyl)-2-methylpiperazine-1-carboxylate] reads 1000 nM; that for `CCCOC(=O)N1CCN(C(=O)c2ccc3c(Cl)cc(-c4ccc(N(C)C)cc4)nc3c2)C[C@H]1C` [B060, Propyl (R)-4-(4-chloro-2-(4-(dimethylamino)phenyl)quinoline-7-carbonyl)-2-methylpiperazine-1-carboxylate], 420 nM; that for `CCCOC(=O)N1CCN(C(=O)c2ccc3c(Cl)cc(-c4cccc(N(C)C)c4)nc3c2)C[C@H]1C` [B061, Propyl (R)-4-(4-chloro-2-(3-(dimethylamino)phenyl)quinoline-7-carbonyl)-2-methylpiperazine-1-carboxylate], 870 nM.
As to `CCCOC(=O)N1CCN(C(=O)c2ccc3c(Cl)cc(-c4ccc(C#N)cc4)nc3c2)C[C@H]1C` [B062, Propyl (R)-4-(4-chloro-2-(4-cyanophenyl)quinoline-7-carbonyl)-2-methylpiperazine-1-carboxylate], the concentration for half-maximal inhibition (IC50) is 340 nM.
The figure for `CCCOC(=O)N1CCN(C(=O)c2ccc3c(Cl)cc(-c4ccc(C(N)=O)cc4)nc3c2)C[C@H]1C` [B063, Propyl (R)-4-(2-(4-carbamoylphenyl)-4-chloroquinoline-7-carbonyl)-2-methylpiperazine-1-carboxylate] is 80 nM; for `CCCOC(=O)N1CCN(C(=O)c2ccc3c(Cl)cc(-c4ccc(CN)cc4)nc3c2)C[C@H]1C` [B064, Propyl (R)-4-(2-(4-(aminomethyl)phenyl)-4-chloroquinoline-7-carbonyl)-2-methylpiperazine-1-carboxylate] it is 57 nM.
The figure for `CCCOC(=O)N1CCN(C(=O)c2ccc3c(Cl)cc(-c4ccc(F)cc4)nc3c2)CC1` [B065, Propyl 4-(4-chloro-2-(4-fluorophenyl)quinoline-7-carbonyl)piperazine-1-carboxylate] is 560 nM; for `CCCOC(=O)N1CCN(C(=O)c2ccc3c(Cl)cc(-c4ccc(C(F)(F)F)cc4)nc3c2)CC1` [B066, Propyl 4-(4-chloro-2-(4-(trifluoromethyl)phenyl)quinoline-7-carbonyl)piperazine-1-carboxylate] it is 3700 nM.
The figure for `CCCOC(=O)N1CCN(C(=O)c2ccc3c(Cl)cc(-c4cccc(CC)c4)nc3c2)CC1` [B067, Propyl 4-(4-chloro-2-(3-ethylphenyl)quinoline-7-carbonyl)piperazine-1-carboxylate] is 2100 nM.
On to `CCCOC(=O)N1CCN(C(=O)c2ccc3c(Cl)cc(-c4ccc(F)c(C)c4)nc3c2)CC1` [B068, Propyl 4-(4-chloro-2-(4-fluoro-3-methylphenyl)quinoline-7-carbonyl)piperazine-1-carboxylate], for which the IC50 was determined as 1300 nM.
As to `CCCOC(=O)N1CCN(C(=O)c2ccc3c(Cl)cc(-c4cccc(N5CCOCC5)c4)nc3c2)C[C@H]1C` [B069, Propyl (R)-4-(4-chloro-2-(3-morphohnophenyl)quinoline-7-carbonyl)-2-methylpiperazine-1-carboxylate], the IC50 is 240 nM.
The figure for `C#Cc1cccc(-c2cc(Cl)c3ccc(C(=O)N4CCN(C(=O)OCCC)CC4)cc3n2)c1` [B070, Propyl 4-(4-chloro-2-(3-ethynylphenyl)quinoline-7-carbonyl)piperazine-1-carboxylate] is 2100 nM; for `C#Cc1cccc(-c2cc(Cl)c3ccc(C(=O)N4CCN(C(=O)OCCC)[C@H](C)C4)cc3n2)c1` [B071, Propyl (R)-4-(4-chloro-2-(3-ethynylphenyl)quinoline-7-carbonyl)-2-methylpiperazine-1-carboxylate] it is 1300 nM; for `CCCOC(=O)N1CCN(C(=O)c2ccc3c(Cl)cc(-c4ccc([N+](=O)[O-])cc4)nc3c2)CC1` [B072, Propyl 4-(4-chloro-2-(4-nitrophenyl)quinoline-7-carbonyl)piperazine-1-carboxylate] it is 1400 nM.
The result for `CCCOC(=O)N1CCN(C(=O)c2ccc3c(Cl)cc(-c4ccc(N)cc4)nc3c2)CC1` [B073, Propyl 4-(2-(4-aminophenyl)-4-chloroquinoline-7-carbonyl)piperazine-1-carboxylate] reads 90 nM; that for `CCCOC(=O)N1CCN(C(=O)c2ccc3c(Cl)cc(-c4ccc(N)cc4)nc3c2)C[C@H]1C` [B074, Propyl (R)-4-(2-(4-aminophenyl)-4-chloroquinoline-7-carbonyl)-2-methylpiperazine-1-carboxylate], 130 nM; that for `CCCOC(=O)N1CCN(C(=O)c2ccc3c(Cl)cc(-c4ccc(N5CCCC5)cc4)nc3c2)C[C@H]1C` [B075, Propyl (R)-4-(4-chloro-2-(4-(pyrrolidin-1-yl)phenyl)quinoline-7-carbonyl)-2-methylpiperazine-1-carboxylate], 440 nM.
As to `CCCOC(=O)N1CCN(C(=O)c2ccc3c(Cl)cc(-c4ccc(N(C)C)cc4)nc3c2)[C@@H](C)C1` [B076, Propyl (S)-4-(4-chloro-2-(4-(dimethylamino)phenyl)quinoline-7-carbonyl)-3-methylpiperazine-1-carboxylate], the 50% inhibitory concentration (IC50) is 190 nM.
The figure for `CCCOC(=O)N1CCN(C(=O)c2ccc3c(Cl)cc(-c4cccc(N)c4)nc3c2)CC1` [B077, Propyl 4-(2-(3-aminophenyl)-4-chloroquinoline-7-carbonyl)piperazine-1-carboxylate] is 120 nM; for `CCCOC(=O)N1CCN(C(=O)c2ccc3c(Cl)cc(-c4cccc(N)c4)nc3c2)C[C@H]1C` [B078, Propyl (R)-4-(2-(3-aminophenyl)-4-chloroquinoline-7-carbonyl)-2-methylpiperazine-1-carboxylate] it is 130 nM.
For `CCCOC(=O)N1CCN(C(=O)c2ccc3c(Cl)cc(C4CC4)nc3c2)C[C@H]1C` [B079, Propyl (R)-4-(4-chloro-2-cyclopropylquinoline-7-carbonyl)-2-methylpiperazine-1-carboxylate], the IC50 was 60 nM.
For `CCCOC(=O)N1CCN(C(=O)c2ccc3c(Cl)cc(-c4nccs4)nc3c2)C[C@H]1C` [B080, Propyl (R)-4-(4-chloro-2-(thiazol-2-yl)quinoline-7-carbonyl)-2-methylpiperazine-1-carboxylate], the 50% inhibitory concentration (IC50) is 10000 nM.
The figure for `CCCOC(=O)N1C2CCCC1CN(C(=O)c1ccc3c(Cl)cc(-c4ccccc4)nc3c1)C2` [B081, Propyl 3-(4-chloro-2-phenylquinoline-7-carbonyl)-3,9-diazabicyclo[3.3.1]nonane-9-carboxylate] is 470 nM; for `CCCOC(=O)N1CCN(C(=O)c2ccc3c(Cl)cc(-c4ccc(C(=O)N(C)C)cc4)nc3c2)C[C@H]1C` [B082, Propyl (R)-4-(4-chloro-2-(4-(dimethylcarbamoyl)phenyl)quinoline-7-carbonyl)-2-methylpiperazine-1-carboxylate] it is 690 nM.
In the case of `CCCOC(=O)N1CCN(C(=O)c2ccc3c(Cl)cc(-c4cccc(NC)c4)nc3c2)C[C@H]1C` [B083, Propyl (R)-4-(4-chloro-2-(3-(methylamino)phenyl)quinoline-7-carbonyl)-2-methylpiperazine-1-carboxylate], the IC50 stood at 58 nM.
The figure for `CCCOC(=O)N1CCN(C(=O)c2ccc3c(Cl)cc(-c4cccs4)nc3c2)CC1` [B084, Propyl 4-(4-chloro-2-(thiophen-2-yl)quinoline-7-carbonyl)piperazine-1-carboxylate] is 540 nM; for `CCCOC(=O)N1CCN(C(=O)c2ccc3c(Cl)cc(-c4cccs4)nc3c2)C[C@H]1C` [B085, Propyl (R)-4-(4-chloro-2-(thiophen-2-yl)quinoline-7-carbonyl)-2-methylpiperazine-1-carboxylate] it is 210 nM.
As for `CCCOC(=O)N1CCN(C(=O)c2ccc3c(Cl)cc(-c4ccc5c(cnn5C)c4)nc3c2)C[C@H]1C` [B086, Propyl (R)-4-(4-chloro-2-(1-methyl-1H-indazol-5-yl)quinoline-7-carbonyl)-2-methylpiperazine-1-carboxylate], the half-inhibitory concentration (IC50) was found to be 11 nM.
The result for `CCCOC(=O)N1CCN(C(=O)c2ccc3c(Cl)cc(-c4ccc(F)c(OC)c4)nc3c2)CC1` [B087, Propyl 4-(4-chloro-2-(4-fluoro-3-methoxyphenyl)quinoline-7-carbonyl)piperazine-1-carboxylate] reads 930 nM.
